This is an account of results in patent US5028730A, “Antihypercholesterolemic nitrile compounds” (Bristol-Myers Company, priority 1990, dated 1991).

Each structure is given as a SMILES string.

The test concerns the target T1, microsomal form of rat liver HMG-CoA reductase (Rattus norvegicus, UniProt P51639).
T1 construct: from tissue; host or cells: rat liver microsomes
T1 sequence (P51639 1-887): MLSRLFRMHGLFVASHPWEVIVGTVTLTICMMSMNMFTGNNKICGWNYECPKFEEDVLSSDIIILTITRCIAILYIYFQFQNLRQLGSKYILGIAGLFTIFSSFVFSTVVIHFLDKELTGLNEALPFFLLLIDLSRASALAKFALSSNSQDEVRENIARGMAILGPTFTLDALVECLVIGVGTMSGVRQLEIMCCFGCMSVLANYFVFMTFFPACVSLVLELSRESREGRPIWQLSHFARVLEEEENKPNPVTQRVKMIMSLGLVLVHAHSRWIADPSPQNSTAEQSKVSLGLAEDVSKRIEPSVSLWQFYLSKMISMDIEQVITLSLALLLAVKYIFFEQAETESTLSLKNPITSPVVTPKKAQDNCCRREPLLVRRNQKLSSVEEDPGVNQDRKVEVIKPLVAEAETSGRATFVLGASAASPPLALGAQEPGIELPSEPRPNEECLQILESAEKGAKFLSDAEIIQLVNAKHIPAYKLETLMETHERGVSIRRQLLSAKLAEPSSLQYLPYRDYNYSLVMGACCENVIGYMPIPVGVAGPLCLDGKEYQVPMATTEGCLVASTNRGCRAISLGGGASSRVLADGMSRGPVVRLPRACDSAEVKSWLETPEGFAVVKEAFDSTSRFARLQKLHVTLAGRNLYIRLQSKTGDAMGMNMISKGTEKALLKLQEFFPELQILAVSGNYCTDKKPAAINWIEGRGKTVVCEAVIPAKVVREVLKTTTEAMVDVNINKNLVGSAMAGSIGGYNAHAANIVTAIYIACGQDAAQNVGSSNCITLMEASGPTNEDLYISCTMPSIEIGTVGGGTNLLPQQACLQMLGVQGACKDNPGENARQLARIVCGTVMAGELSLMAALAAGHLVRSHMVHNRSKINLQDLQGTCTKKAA
The test is described as follows: In Vitro Inhibition of Microsomal HMG-CoA Reductase. It counts as biochemical. As to conditions: 50 percent inhibitory concentration, rat liver microsomes, [3-14C]-HMG-CoA 0.33 mM, NADPH 3.0 mM, pH 7.2, at least 4 dilutions in duplicate. As to the method:
The intact, fully activated microsomal form of rat liver HMG-CoA reductase (subunit MW ca 100,000 daltons) was prepared as described by Parker, et al., Biochem. Biophys. Res. Commun., 125, 629-635 (1984), and used as the source of enzyme for assays. HMG-CoA reductase activity was determined essentially by the method of Shapiro, et al., Biochem. Biophys. Acta., 370, 369-377 (1974), with modifications as described by Ingebritsen and Gibson, Meth. Enzymol, 71, 486-497 (1981) with the exception that the internal standard ^3 H-mevalonolactone is added after termination of the assay. […]
To measure reductase inhibition, test compounds dissolved in water or dimethylsulfoxide and diluted in buffer A (50 mM imidazole-HCl, 250 mM NaCl, 1 mM EDTA, 1 mM EGTA, 5 mM DTT, 20 μM leupeptin, pH=7.2) were incubated with aliquots of microsomes (80-160 μg protein in buffer A) followed by addition of d,1-[3-^14 C]-HMG-CoA (0.33 mM, 2.0 dpm/picomole) and NADPH (3.0 mM). The 50 percent inhibitory concentration (IC50) for each compound in Table 1 was calculated from the linear regression line of the percent decrease (from control) in enzyme activity vs. log concentration of inhibitor, determined using at least 4 dilutions of each test compound assayed in duplicate.
On the technique in general: Microsomes from liver hold many membrane-bound enzymes, among them those of drug oxidation.

What is called IC50 is the midpoint of a concentration-inhibition curve. Higher therefore signals weaker potency. In turn, `N#CC(/C=C/[C@@H](O)C[C@@H](O)CC(=O)O)=C(c1ccc(F)cc1)c1ccc(F)cc1` (relative stereo) [Example 7, Sodium (±)-(E)-erythro-8-cyano-9,9-bis(4-fluorophenyl)-3,5-dihydroxy-6,8-nonadienoate] returned an IC50 of 8 µM.

`N#CC(/C=C/[C@H]1C[C@H](O)CC(=O)O1)=C(c1ccc(F)cc1)c1ccc(F)cc1` (relative stereo) [Example 8, Trans-(E)-2-[bis(4-fluorophenyl)methylene]-4-(tetrahydro-4-hydroxy-6-oxo-2H-pyran-2-yl)-3-butenenitrile] gave an IC50 of 26 µM.
